Here are results for 33 compounds from PMC5720837, “Identification of a 4-fluorobenzyl L-valinate amide benzoxaborole (AN11736) as a potential development candidate for the treatment of Animal African Trypanosomiasis (AAT)” (Bioorganic & Medicinal Chemistry Letters, 2018).

Some results are limits rather than exact numbers.

In assay [1] the test system is Trypanosoma congolense (T. congolense IL-3000 strain), bloodstream form. Kind of assay: Whole cell Alamar Blue assay, T. congolense (72 h in vitro). It counts as cell-based. The note with it: T. congolense IL-3000, 72 h in vitro Alamar Blue assay. As to the method: (§1) Activity of compounds 1–71 against T. congolense and T. vivax was determined using the whole cell assays as described ^6 and their IC50 values are summarized in Table 1.
(§2) [6] Assay methods for determination of T. c. and T. v. […] Culture media consisted of complete HMI-9 (IMDM) with 20% bovine serum. To ensure log growth phase, trypanosomes were sub-cultured at appropriate dilutions every 2–3 days. Bloodstream form Trypanosoma vivax (T. vivax) cannot be cultured axenically, therefore trypanosomes (T. vivax STIB719/ILRAD 560 strain) were harvested from a highly parasitemia mouse via cardiac puncture and used directly in the ex vivo drug sensitivity assay on the same day. […] Parasite starting concentrations of 2 × 10^5 (T. c.) and 4 × 10^5 (T. v.) were calculated respectively, using a cell analyzer system or haemo-cytometer, followed by quantification at 536 nm excitation and 588 nm emission wavelengths using a […] reader. Test compounds were prepared as 10 mg/mL DMSO stocks for each assay run. Compounds were assayed in at least three separate, independent test runs and an 11-point dilution curve was used to determine the IC50 values. Data points were averaged to generate sigmoidal dose-response curves and IC50 values were determined using Softmax Pro 5.2 software.
(In general: Alamar Blue is a resazurin reagent that responds to reducing activity.)

In assay [2] the test system is Trypanosoma vivax (T. vivax STIB719/ILRAD 560 strain), bloodstream form. Kind of assay: Whole cell Alamar Blue assay, T. vivax (48 h ex vivo). Conditions: Trypanosoma vivax; T. vivax STIB719/ILRAD 560, 48 h ex vivo Alamar Blue assay. It is filed as cell-based. As to the method: as §1, §2

Broadly, the IC50 is the concentration that gives 50% inhibition. The low end stands for greater potency, the high end for weaker potency. As to `Cc1c(C(=O)N[C@H](C(=O)OCc2ccncc2)C(C)C)ccc2c1B(O)OC2` [Compound 38], the 50% inhibitory concentration (IC50) in assay [1] (Trypanosoma congolense, 72 h) came out at 0.68 nM; in assay [2], 0.31 nM.

For the compound `Cc1c(C(=O)N[C@H](C(=O)OCC2CCN(C)CC2)C(C)C)ccc2c1B(O)OC2` [Compound 66], the IC50 in assay [1] (Trypanosoma congolense, 72 h) came out at 5.9 nM; in assay [2] it was 4.1 nM.

Take `CC(C)[C@H](NC(=O)c1ccc2c(c1C(F)(F)F)B(O)OC2)C(=O)OCc1ccc(F)cc1` [Compound 23]: the IC50 was 37 nM in assay [1] (Trypanosoma congolense, 72 h) and 51 nM in assay [2].

In the case of `Cc1c(C(=O)N[C@H](C(=O)OCc2cccc(F)c2)C(C)C)ccc2c1B(O)OC2` [Compound 7], the 50% inhibitory concentration (IC50) turned out to be 0.59 nM in assay [1] (Trypanosoma congolense, 72 h) and 0.1 nM in assay [2].

As for `CC(C)[C@H](NC(=O)c1ccc2c(c1)B(O)OC2(C)C)C(=O)OCc1ccccc1` [Compound 3], the IC50 amounted to 2580 nM in assay [1] (Trypanosoma congolense, 72 h) and 9190 nM in assay [2].

With `Cc1c(C(=O)N[C@H](C(=O)OCCN2CCCC2)C(C)C)ccc2c1B(O)OC2` [Compound 65], the concentration for half-maximal inhibition (IC50) in assay [1] (Trypanosoma congolense, 72 h) is 9.4 nM; in assay [2] it was 1.2 nM.

Consider `Cc1c(C(=O)N[C@H](C(=O)OCc2ccc(C(F)(F)F)cc2)C(C)C)ccc2c1B(O)OC2` [Compound 11], for which the IC50 in assay [1] (Trypanosoma congolense, 72 h) amounted to 0.16 nM; in assay [2], 24 nM.

For the compound `Cc1c(C(=O)N[C@H](C(=O)OCc2ccc3ccccc3n2)C(C)C)ccc2c1B(O)OC2` [Compound 45], the concentration for half-maximal inhibition (IC50) in assay [1] (Trypanosoma congolense, 72 h) was found to be 0.37 nM; in assay [2] it was 0.33 nM.

For `Cc1c(C(=O)N[C@H](C(=O)OCc2nccs2)C(C)C)ccc2c1B(O)OC2` [Compound 42], the IC50 in assay [1] (Trypanosoma congolense, 72 h) came to 0.2 nM; in assay [2] it was 0.19 nM.

`Cc1c(C(=O)N[C@H](C(=O)OCCc2ccc(F)cc2)C(C)C)ccc2c1B(O)OC2` [Compound 67]: the half-maximal inhibitory concentration (IC50) in assay [1] (Trypanosoma congolense, 72 h) came to 0.43 nM; in assay [2], 0.79 nM.

With `Cc1c(C(=O)N[C@H](C(=O)OCc2cscn2)C(C)C)ccc2c1B(O)OC2` [Compound 43], in assay [1] (Trypanosoma congolense, 72 h), the half-maximal inhibitory concentration (IC50) was 0.062 nM.

As to `Cc1c(C(=O)N[C@H](C(=O)OCC2CCCC2)C(C)C)ccc2c1B(O)OC2` [Compound 61], the IC50 stood at 0.36 nM in assay [1] (Trypanosoma congolense, 72 h) and 0.21 nM in assay [2].

On to `Cc1c(C(=O)NC2(C(=O)OCc3ccc(F)cc3)CCC2)ccc2c1B(O)OC2` [Compound 32], for which the IC50 in assay [1] (Trypanosoma congolense, 72 h) was determined as 0.45 nM; in assay [2] it was 2.5 nM.

With `Cc1c(C(=O)N[C@H](C(=O)OCc2ccc(F)cc2)C2CC2)ccc2c1B(O)OC2` [Compound 28], the half-maximal inhibitory concentration (IC50) in assay [1] (Trypanosoma congolense, 72 h) worked out at 0.12 nM; in assay [2] it was 0.38 nM.

On to `CCCc1c(C(=O)N[C@H](C(=O)OCc2ccc(F)cc2)C(C)C)ccc2c1B(O)OC2` [Compound 25], for which the IC50 was 3 nM in assay [1] (Trypanosoma congolense, 72 h) and 4.7 nM in assay [2].

On to `Cc1c(C(=O)N[C@H](C(=O)OCc2cccc(OC(F)(F)F)c2)C(C)C)ccc2c1B(O)OC2` [Compound 12], for which the IC50 in assay [1] (Trypanosoma congolense, 72 h) was 0.31 nM; in assay [2], 19 nM.

As to `Cc1c(C(=O)N[C@H](C(=O)OCc2ccc(C#N)cc2)C(C)C)ccc2c1B(O)OC2` [Compound 15], the IC50 in assay [1] (Trypanosoma congolense, 72 h) amounted to 0.15 nM; in assay [2] it was 0.05 nM.

For the compound `Cc1c(C(=O)N[C@H](C(=O)OCc2ncc(F)cn2)C(C)C)ccc2c1B(O)OC2` [Compound 40], the half-inhibitory concentration (IC50) in assay [1] (Trypanosoma congolense, 72 h) amounted to 0.27 nM; in assay [2], 0.5 nM.

Turning to `Cc1c(C(=O)N[C@H](C(=O)OCCN2CCOCC2)C(C)C)ccc2c1B(O)OC2` [Compound 64], the IC50 was determined as 2.3 nM in assay [1] (Trypanosoma congolense, 72 h) and 0.78 nM in assay [2].

As to `Cc1c(C(=O)N[C@H](C(=O)OC2CCC2)C(C)C)ccc2c1B(O)OC2` [Compound 58], the half-inhibitory concentration (IC50) in assay [1] (Trypanosoma congolense, 72 h) was determined as 0.66 nM; in assay [2], 0.69 nM.

On to `Cc1c(C(=O)N[C@H](C(=O)OCc2ccccn2)C(C)C)ccc2c1B(O)OC2` [Compound 36], for which the IC50 in assay [1] (Trypanosoma congolense, 72 h) worked out at 0.26 nM; in assay [2], 0.14 nM.

Consider `C[C@H](NC(=O)c1ccc2c(c1)B(O)OC2)C(=O)OCc1ccccc1` [Compound 1], for which the half-maximal inhibitory concentration (IC50) is 4.9 nM in assay [1]; 5 nM in assay [1] (Trypanosoma congolense, 72 h); 69 nM in assay [2].

Take `CC(C)[C@H](NC(=O)c1ccc2c(c1C1CC1)B(O)OC2)C(=O)OCc1ccc(F)cc1` [Compound 27]: the IC50 in assay [1] (Trypanosoma congolense, 72 h) turned out to be 3.9 nM; in assay [2], 0.71 nM.

In the case of `Cc1c(C(=O)N[C@H](C(=O)OC2COC2)C(C)C)ccc2c1B(O)OC2` [Compound 68], the IC50 in assay [1] (Trypanosoma congolense, 72 h) turned out to be 1.8 nM; in assay [2] it was 37 nM.

For the compound `Cc1c(C(=O)N[C@H](C(=O)OCc2cccc(C(F)(F)F)c2)C(C)C)ccc2c1B(O)OC2` [Compound 10], the IC50 in assay [1] (Trypanosoma congolense, 72 h) stood at 0.22 nM; in assay [2] it was 2.7 nM.

For `Cc1c(C(=O)N[C@H](C(=O)OCc2cccnc2)C(C)C)ccc2c1B(O)OC2` [Compound 37], the IC50 in assay [1] (Trypanosoma congolense, 72 h) amounted to 0.78 nM; in assay [2], 0.5 nM.

As to `Cc1c(C(=O)N[C@H](C(=O)OCC(C)C)C(C)C)ccc2c1B(O)OC2` [Compound 57], the IC50 in assay [1] (Trypanosoma congolense, 72 h) is 0.46 nM; in assay [2], 0.26 nM.

As for `Cc1c(C(=O)N[C@H](C(=O)OCc2ccc(OC(F)(F)F)cc2)C(C)C)ccc2c1B(O)OC2` [Compound 13], the half-inhibitory concentration (IC50) was determined as 0.23 nM in assay [1] (Trypanosoma congolense, 72 h) and 0.04 nM in assay [2].

Consider `Cc1c(C(=O)N[C@H](C(=O)OCc2c[nH]cn2)C(C)C)ccc2c1B(O)OC2` [Compound 44], for which the half-maximal inhibitory concentration (IC50) in assay [1] (Trypanosoma congolense, 72 h) was found to be 5000 nM; in assay [2], 980 nM.

`Cc1c(C(=O)N[C@H](C(=O)OC(C)C)C(C)C)ccc2c1B(O)OC2` [Compound 56]: the concentration for half-maximal inhibition (IC50) came to 5.2 nM in assay [1] (Trypanosoma congolense, 72 h) and 14 nM in assay [2].

Consider `Cc1c(C(=O)N[C@H](C(=O)OC2CCCCC2)C(C)C)ccc2c1B(O)OC2` [Compound 60], for which the IC50 is below 0.005 nM in assay [1] (Trypanosoma congolense, 72 h) and 0.78 nM in assay [2].

In the case of `Cc1c(C(=O)N[C@H](C(=O)OCc2cc(F)cc(F)c2)C(C)C)ccc2c1B(O)OC2` [Compound 9], the IC50 was determined as 0.18 nM in assay [1] (Trypanosoma congolense, 72 h) and 0.1 nM in assay [2].

Turning to `Cc1c(C(=O)N[C@H](C(=O)OC2CCCC2)C(C)C)ccc2c1B(O)OC2` [Compound 59], the 50% inhibitory concentration (IC50) in assay [1] (Trypanosoma congolense, 72 h) was found to be 0.7 nM; in assay [2], 0.52 nM.
